Results published in patent US20020127605A1 (priority 2000, published 2002).

Legend:
[1] = system: striatal tyrosine hydroxylase-immunoreactive fibres; test: MPTP-lesioned mouse model of Parkinson's disease, striatal TH fiber density; format: in vivo; settings: 10 mg/kg s.c. in Intralipid once daily days 1-5, one hour prior to MPTP; analysis day seven
Source text: MPTP (N-methyl-4-phenyl-1,2,3,6-tetrahydropyridine) is a systemically available neurotoxin specific to nigrostriatal dopaminergic neurons, i.e. to the cells that degenerate in human Parkinson's disease. Administration of MPTP to mice leads to a selective partial destruction of the mesotelencephalic dopaminergic projection, and to a loss of dopamine and dopaminergic fibres in the corpus striatum, which is the main forebrain target of midbrain dopaminergic neurons.
Young adult male CD1 albino mice (Harlan—Sprague Dawley; 22-25 g) were dosed i.p. with the dopamine cell-specific neurotoxin N-methyl-4-phenyl-1,2,3,6-tetrahydropyridine (MPTP hydrochloride, calculated as 34 mg/kg free base), dissolved in saline at a concentration of 3.4 mg/ml free base once daily on days one to five. […]
Blinded analysis of TH fiber density in the central striatum was performed at 630× magnification. […] The percentage of sample field covered by TH positive processes and terminals was calculated using an image analysis program (“Simple,” Compix Inc., Pittsburgh, Pa.). The mean striatal innervation density was calculated for each group. The magnitude of striatal deafferentation due to the MPTP lesion was assessed by dividing the observed striatal innervation values obtained in MPTP/vehicle treated cases by the mean striatal innervation density in the Vehicle/Vehicle group and expressed as % loss. […]

human recombinant CyPA = human recombinant CyPA (Homo sapiens, UniProt P62937); test: Rotamase inhibition, chymotrypsin-coupled cuvette assay (asterisked values); format: biochemical
Chain of human recombinant CyPA (P62937 whole entry): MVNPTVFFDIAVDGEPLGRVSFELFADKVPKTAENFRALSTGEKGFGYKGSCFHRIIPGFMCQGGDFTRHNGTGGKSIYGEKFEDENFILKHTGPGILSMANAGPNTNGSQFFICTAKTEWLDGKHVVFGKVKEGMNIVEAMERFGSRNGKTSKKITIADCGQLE
Source text: (§1) A number of substrates for rotamase are known in the art or can be derived from those known. Typically, the substrate contacts a sample containing a protein with rotamase activity and the conversion of the substrate is detected after a period of time. The method for detecting conversion of the substrate will vary with the particular substrate chosen. One method has been termed the Ki test (See Harding, et al., Nature, 341:758-760 (1989). The cis-trans isomerization of an alanine-proline bond in a model substrate, N-succinyl-Ala-Ala-Pro-Phe-p-nitroanilide, is monitored spectrophotometrically in a chymotrypsin-coupled assay. The action of chymotrypsin releases p-nitroaniline from only the trans form of the substrate. The amount of p-nitroaniline can be monitored in a spectrophotometer, for example. Other methods of detecting the presence of p-nitroaniline can also be used. The inhibition of this reaction caused by different concentrations of inhibitor is determined and the data are analyzed as a change in first-order rate constant as a function of inhibitor concentration, which yields the Ki value.
(§2) The following were added to a plastic cuvette: […] of ice cold assay buffer (25 mM HEPES, pH 7.8, 100 mM NaCl), 10 μL of CyP A (2.5 μM in 10 mM Tris-Cl pH 7.5, 100 mM NaCl, 1 mM dithiothreitol), 25 μL of chymotrypsin (50 mg/ml in 1 mM HCl), and 10 μL of test compound, at various concentrations, in dimethyl sulfoxide. The reaction was initiated by the addition of 5 μL of substrate (succinyl-Ala-Phe-Pro-Phe-para-nitroanilide, 5 mg/mL in 470 mM LiCl in trifluoroethanol). The absorbance at 390 nm versus time was monitored for 90 seconds using a spectrophotometer and the rate constants were determined from the absorbance versus time data files.
(§3) The IC50 values that were obtained for representative compounds in the following Table I refer to the concentration that inhibits 50% of the rotamase activity in a sample. […] The Cyclophilin utilized was a recombinant rat CyPA-GST fusion protein: CypA was amplified from rat brain cDNA using standard PCR methods, primed with the following sequences: 5′ CCCCCCGGGAGTCAACCCCACCGTGTTCTTCGA 3′ and 5′ GGAGATCTAGAGTTGTCCACAGTCGGAGATGGT 3′. The resulting fragment (573 base pairs) was cloned into pCRII and amplified. The CyP sequence was cut out with Smal and EcoRl and cloned into the Smal/EcoRl sites in pGEX2TK (Pharmacia). This plasmid was transformed into BL21 E. coli cells for expression of the GST-CyPA fusion protein.

[2] = system: Sprague-Dawley rat lumbar spinal cord slices; test: Neuroprotection assay in spinal cord slice preparations (THA-induced cell death); format: cell-based; settings: THA 200 μM + compound 10 μM
Method: Neuroprotection Assay in Spinal Cord Slice Preparations: All cultures were derived from postnatal day 8 (P8) Sprague-Dawley rat lumbar spinal cord slices of 325 micron thickness, prepared using a commercially available Mcllwain tissue chopper. Each experiment consisted of two 6-well plates with 5 slices from 4 different animals per well. Media changes were performed every 3 to 4 days. Cultures were treated with THA [L(−)-threo-3-hydroxyaspartic acid; Tocris Cookson Inc., Ballwin, Mo.] at 200 μM+compound (10 μM) after one week in culture. The control was an untreated sample with 0.1% DMSO as vehicle. The THA control was a THA treated sample with 0.1% DMSO as vehicle. Two wells were used per condition. One media change with new THA and compounds was performed. […] Quantification of surviving neurons was performed on a Zeiss Axiovert microscope. Neuronal survival was determined by observing an intact neuronal cell body with processes located ventrally of the central canal in each hemisphere. […] Each hemisphere was counted individually. The statistics were performed with StatView™ software on a minimum of three different experiments per condition and significance was determined as compared to THA control. The percent of protection was determined from the average number of living neurons by the following equation: (drug treatment condition−THA control)/(Untreated control−THA control). […]

[3] = biological target: T1, recombinant rat CyPA-GST fusion protein (Rattus norvegicus, UniProt P10111); test: Rotamase (prolyl peptidyl cis-trans isomerase) inhibition, chymotrypsin-coupled cuvette assay; format: biochemical
T1 construct: made in house; host or cells: E. coli BL21
T1 sequence (P10111 2-164): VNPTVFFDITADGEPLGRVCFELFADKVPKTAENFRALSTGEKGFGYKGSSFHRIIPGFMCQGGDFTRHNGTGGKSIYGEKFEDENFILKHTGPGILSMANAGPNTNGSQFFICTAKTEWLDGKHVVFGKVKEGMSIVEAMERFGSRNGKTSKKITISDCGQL
Source text: as §1, §2, §3

O=C(Nc1cc(Cl)cc(Cl)c1)N[C@H]1CCCC[C@H]1NC(=O)Nc1cc(Cl)cc(Cl)c1 [Compound 15a]
protection of striatal tyrosine hydroxylase-immunoreactive fibres [1]: 72.4% | IC50 (human recombinant CyPA): 521 nM | protection from THA-induced cell death [2]: complete protection | SMI-32 immunoreactive neurons per ventral hemisphere ([2]; untreated control 26.4±4.2, THA control 15.97±2.04, mean±standard error): 26.5±2.7 cells/ventral hemisphere | IC50 [3]: 610 nM
